The results in this text go back to the Kinase Knowledgebase extract (Sharma et al. 2016).

Targets include PIK3CB (Human) (UniProt P42338); PIK3CG (human) (UniProt P48736); PIK3CA (human) (UniProt P42336); PIK3CD (Human) (UniProt O00329).
What all share (test): Enzyme Assay

A value given as a limit tells only on which side of the number the result lay.

Sequence of PIK3CA (human) (P42336 whole entry, looked up): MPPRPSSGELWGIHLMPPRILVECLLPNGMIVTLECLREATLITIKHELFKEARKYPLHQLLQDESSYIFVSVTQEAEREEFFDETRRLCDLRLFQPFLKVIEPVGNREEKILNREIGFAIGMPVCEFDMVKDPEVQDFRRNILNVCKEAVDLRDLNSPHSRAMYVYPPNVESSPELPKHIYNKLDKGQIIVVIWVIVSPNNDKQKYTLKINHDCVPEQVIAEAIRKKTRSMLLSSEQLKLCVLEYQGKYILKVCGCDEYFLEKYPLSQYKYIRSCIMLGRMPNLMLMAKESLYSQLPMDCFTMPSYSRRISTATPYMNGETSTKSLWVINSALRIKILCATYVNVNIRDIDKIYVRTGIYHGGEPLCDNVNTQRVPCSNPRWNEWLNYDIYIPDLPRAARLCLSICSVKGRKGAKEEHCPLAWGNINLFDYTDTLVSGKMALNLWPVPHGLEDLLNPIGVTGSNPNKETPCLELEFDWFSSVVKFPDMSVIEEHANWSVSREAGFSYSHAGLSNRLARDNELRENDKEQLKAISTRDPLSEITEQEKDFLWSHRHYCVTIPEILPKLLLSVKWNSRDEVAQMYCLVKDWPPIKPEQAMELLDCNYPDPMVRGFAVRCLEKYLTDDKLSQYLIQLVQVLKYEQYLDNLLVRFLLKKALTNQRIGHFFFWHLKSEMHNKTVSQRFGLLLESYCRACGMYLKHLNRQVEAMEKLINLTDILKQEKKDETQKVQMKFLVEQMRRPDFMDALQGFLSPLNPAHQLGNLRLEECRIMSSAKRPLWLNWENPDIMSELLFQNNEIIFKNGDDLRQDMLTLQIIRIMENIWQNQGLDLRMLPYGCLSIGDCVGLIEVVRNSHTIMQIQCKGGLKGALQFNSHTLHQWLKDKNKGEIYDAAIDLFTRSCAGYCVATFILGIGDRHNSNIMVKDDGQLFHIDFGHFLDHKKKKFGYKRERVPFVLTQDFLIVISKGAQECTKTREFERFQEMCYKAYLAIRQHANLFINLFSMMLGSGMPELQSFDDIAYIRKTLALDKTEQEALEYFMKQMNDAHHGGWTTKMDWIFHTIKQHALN
Sequence of PIK3CG (human) (P48736 whole entry, looked up): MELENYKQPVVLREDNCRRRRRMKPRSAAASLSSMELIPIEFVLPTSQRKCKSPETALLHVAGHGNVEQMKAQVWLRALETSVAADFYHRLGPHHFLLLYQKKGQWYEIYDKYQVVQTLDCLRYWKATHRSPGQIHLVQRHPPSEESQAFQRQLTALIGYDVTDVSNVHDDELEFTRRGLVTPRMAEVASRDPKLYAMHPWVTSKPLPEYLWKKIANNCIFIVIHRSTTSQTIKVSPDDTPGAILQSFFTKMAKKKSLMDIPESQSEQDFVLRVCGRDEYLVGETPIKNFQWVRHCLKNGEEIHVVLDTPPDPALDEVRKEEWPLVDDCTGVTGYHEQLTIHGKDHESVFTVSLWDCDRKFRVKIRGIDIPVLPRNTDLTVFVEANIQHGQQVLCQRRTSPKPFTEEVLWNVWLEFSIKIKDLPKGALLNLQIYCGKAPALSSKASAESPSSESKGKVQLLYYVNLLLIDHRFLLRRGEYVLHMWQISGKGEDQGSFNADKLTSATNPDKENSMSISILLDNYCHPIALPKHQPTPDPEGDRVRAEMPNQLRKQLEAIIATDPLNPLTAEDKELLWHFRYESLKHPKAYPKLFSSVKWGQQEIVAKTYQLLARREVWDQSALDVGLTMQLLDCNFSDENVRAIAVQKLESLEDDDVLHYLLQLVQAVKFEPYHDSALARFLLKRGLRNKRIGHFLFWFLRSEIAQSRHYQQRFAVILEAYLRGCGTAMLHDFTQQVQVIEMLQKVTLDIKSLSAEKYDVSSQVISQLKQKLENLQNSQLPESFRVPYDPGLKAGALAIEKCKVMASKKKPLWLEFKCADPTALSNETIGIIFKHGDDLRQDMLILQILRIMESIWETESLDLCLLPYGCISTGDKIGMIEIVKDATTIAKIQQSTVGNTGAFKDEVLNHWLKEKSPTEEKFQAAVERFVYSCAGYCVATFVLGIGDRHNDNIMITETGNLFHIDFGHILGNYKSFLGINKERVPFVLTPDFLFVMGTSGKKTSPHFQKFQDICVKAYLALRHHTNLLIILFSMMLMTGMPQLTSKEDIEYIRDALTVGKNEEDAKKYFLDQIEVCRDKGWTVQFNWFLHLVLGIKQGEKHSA
Sequence of PIK3CD (Human) (O00329 whole entry, looked up): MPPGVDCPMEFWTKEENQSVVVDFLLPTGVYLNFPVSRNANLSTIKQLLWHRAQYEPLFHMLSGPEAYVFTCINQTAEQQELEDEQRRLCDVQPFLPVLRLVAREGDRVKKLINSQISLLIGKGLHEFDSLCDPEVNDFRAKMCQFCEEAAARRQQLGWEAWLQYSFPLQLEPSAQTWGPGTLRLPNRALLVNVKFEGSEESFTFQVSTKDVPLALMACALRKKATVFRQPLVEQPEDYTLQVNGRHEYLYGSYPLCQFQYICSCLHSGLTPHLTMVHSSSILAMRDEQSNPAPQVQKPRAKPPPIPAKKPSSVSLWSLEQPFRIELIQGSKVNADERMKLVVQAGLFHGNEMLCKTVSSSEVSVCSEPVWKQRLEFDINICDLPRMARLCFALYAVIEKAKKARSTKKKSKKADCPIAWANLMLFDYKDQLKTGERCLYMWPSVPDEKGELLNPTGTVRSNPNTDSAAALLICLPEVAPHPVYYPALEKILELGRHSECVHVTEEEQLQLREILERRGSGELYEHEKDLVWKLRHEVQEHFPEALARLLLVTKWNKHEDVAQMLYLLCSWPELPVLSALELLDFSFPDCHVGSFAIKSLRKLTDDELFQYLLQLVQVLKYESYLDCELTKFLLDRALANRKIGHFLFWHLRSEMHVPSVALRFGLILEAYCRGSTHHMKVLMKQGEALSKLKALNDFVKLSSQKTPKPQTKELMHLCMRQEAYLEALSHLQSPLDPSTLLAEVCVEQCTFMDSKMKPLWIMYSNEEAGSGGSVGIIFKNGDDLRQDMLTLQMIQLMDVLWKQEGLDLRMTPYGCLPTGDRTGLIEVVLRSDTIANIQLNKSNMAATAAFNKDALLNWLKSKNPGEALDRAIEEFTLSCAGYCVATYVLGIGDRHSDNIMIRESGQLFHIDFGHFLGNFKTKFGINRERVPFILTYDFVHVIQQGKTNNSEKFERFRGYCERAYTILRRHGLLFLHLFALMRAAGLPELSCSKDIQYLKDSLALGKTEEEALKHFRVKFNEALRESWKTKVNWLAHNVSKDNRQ
Sequence of PIK3CB (Human) (P42338 whole entry, looked up): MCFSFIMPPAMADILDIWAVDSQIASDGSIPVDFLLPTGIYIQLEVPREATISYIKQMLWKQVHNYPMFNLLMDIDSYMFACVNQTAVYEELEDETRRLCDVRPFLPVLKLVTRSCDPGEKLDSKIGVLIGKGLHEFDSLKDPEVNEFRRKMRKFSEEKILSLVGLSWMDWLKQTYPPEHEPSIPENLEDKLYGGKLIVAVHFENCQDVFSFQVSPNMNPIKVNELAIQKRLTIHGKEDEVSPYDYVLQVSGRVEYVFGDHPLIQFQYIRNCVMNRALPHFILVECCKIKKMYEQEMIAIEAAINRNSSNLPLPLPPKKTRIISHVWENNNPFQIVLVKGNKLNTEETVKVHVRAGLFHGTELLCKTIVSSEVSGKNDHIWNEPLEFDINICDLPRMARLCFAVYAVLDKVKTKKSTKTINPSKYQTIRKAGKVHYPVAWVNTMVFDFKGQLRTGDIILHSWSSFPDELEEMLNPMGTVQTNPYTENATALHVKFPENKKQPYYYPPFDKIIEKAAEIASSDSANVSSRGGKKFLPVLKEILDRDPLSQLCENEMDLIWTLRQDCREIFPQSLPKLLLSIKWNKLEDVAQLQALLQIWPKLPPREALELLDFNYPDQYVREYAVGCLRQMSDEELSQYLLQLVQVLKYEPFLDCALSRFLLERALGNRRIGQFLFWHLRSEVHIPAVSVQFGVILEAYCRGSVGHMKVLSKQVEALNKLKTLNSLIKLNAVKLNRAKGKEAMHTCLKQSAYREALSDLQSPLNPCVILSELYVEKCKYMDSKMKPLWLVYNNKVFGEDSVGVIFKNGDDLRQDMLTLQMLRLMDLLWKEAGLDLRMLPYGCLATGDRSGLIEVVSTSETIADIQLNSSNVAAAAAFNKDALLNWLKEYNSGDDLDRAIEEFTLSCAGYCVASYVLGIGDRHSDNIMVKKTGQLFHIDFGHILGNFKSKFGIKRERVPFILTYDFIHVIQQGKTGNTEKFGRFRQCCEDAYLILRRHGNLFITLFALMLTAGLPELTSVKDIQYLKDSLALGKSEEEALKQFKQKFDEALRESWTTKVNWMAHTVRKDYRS

Regarding `CC(C)(C)NS(=O)(=O)c1cncc(-c2cc(F)c3nc(N)nn3c2)c1`, the IC50 (as a rule, the concentration at which inhibition is half-maximal) at PIK3CB (Human) was 1.1 µM; against PIK3CG (human), 0.027 µM; at PIK3CA (human) it was over 10 µM; at PIK3CD (Human) it was 8.2 µM.
Regarding `Cc1ccccc1Oc1cccc2c(=O)cc(N3CCOCC3)[nH]c12`, the IC50 on PIK3CB (Human) is 0.13 µM; against PIK3CG (human), over 100 µM; on PIK3CA (human), 61 µM; at PIK3CD (Human), 0.63 µM.
Consider `Nc1ncc(-c2ccnc(Nc3ccncc3)n2)c(CC2CC2)n1`, for which the half-inhibitory concentration (IC50) on PIK3CG (human) was determined as 3.04 µM; against PIK3CA (human), 3.96 µM; against PIK3CD (Human), 1.2 µM.
For the compound `CN(CCO)S(=O)(=O)c1cncc(-c2ccc3nc(NC(=O)NCCc4noc(C(C)(C)C)n4)sc3c2)c1`, the half-inhibitory concentration (IC50) against PIK3CB (Human) was found to be 0.062 µM; on PIK3CG (human) it was 0.003 µM; at PIK3CA (human), 1.68 µM; on PIK3CD (Human), 0.166 µM.
On PIK3CG (human), `CC(C)(O)CNc1ncc(-c2ccnc(Nc3ccnc(Cl)c3)n2)c(CC2CC2)n1` showed an IC50 of 2 µM.
For `O=C1NC(=O)/C(=C/c2ccc(-c3ccc(F)cc3O)o2)S1`, the values for the half-inhibitory concentration (IC50) against PIK3CB (Human), against PIK3CA (human) and on PIK3CD (Human) were over 20 µM, 1.07 µM and over 20 µM, respectively.
Regarding `Fc1ccc2[nH]ccc2c1-c1nc(N2CCOCC2)c2sc(CN3CCN(CC4CC4)CC3)cc2n1`, the IC50 on PIK3CB (Human) was 2.65 µM; against PIK3CG (human), over 1000 µM; on PIK3CA (human), 0.91 µM; against PIK3CD (Human), 0.005 µM.
On to `C[C@@H]1COCCN1c1cc(=O)n2c(n1)N(Cc1cncc(Cl)c1)[C@H](C(F)(F)F)CC2`, for which the half-inhibitory concentration (IC50) on PIK3CB (Human), on PIK3CG (human) and on PIK3CD (Human) was over 10 µM each time.
Turning to `C[C@H](Nc1ncnc2nc[nH]c12)c1nc2ccc(F)cc2c(=O)n1-c1ccccc1`, the IC50 against PIK3CG (human) amounted to 1.39 µM; on PIK3CA (human) it was 5.44 µM; on PIK3CD (Human), 0.012 µM.
